Results: patent US20240327458A1, “MACROCYCLIC PEPTIDOMIMETIC PROTEASE INHIBITOR AND USE THEREOF” (TENCENT TECHNOLOGY (SHENZHEN) COMPANY LIMITED, priority 2022, published 2024)
Like-named read-outs stand apart in the source and are kept apart here.

Key:
M^pro = M^pro (Severe acute respiratory syndrome coronavirus 2 (2019-nCoV) (SARS-CoV-2), UniProt P0DTD1); settings: read-out: M^pro IC50; GST-AVLQ-3Clpro-GP-6His; substrate MCA-AVLQSGFR-Lys(Dnp)-Lys-NH2; Ex320/Em405
Text: An objective of this experiment is to detect the in vitro inhibitory activity against M^pro of the compound of the present disclosure.
Experimental steps and methods: • 1. Prepare a 1× buffer solution (modified Tris buffer solution). • 2. Transfer a to-be-tested compound to the assay plate with Echo's 100% DMSO solution to a final DMSO content of 0.5%. • 3. Prepare a mixed protein solution: Add GST-AVLQ-3Clpro-GP-6His in a 1× assay buffer solution to support the mixed protein solution. • 4. […] Add 10 μL of 2× mixed protein solution in the assay plate, centrifuge for 30s, shake for 30s, and incubate the solution at room temperature for 15 min. • 6. Add 10 μL of 2× mixed substrate solution in the assay plate, centrifuge for 30, and shake for 30s. • 7. Read the data dynamically on Synergy (Ex320/Em405).

[1] = rcm bond, Grubbs 2nd generation catalyst, dichloromethane, 25.0 °C

`CC1(C)[C@@H]2[C@H]3C(=O)N[C@H](C#N)CCC(=O)NCCCCCC[C@H](NC(=O)C(F)(F)F)C(=O)N3C[C@@H]21` [Compound 7, N-((3S, 14S, 17aS, 18aR, 18bS)-3-cyano-18,18-dimethyl-1,6,15-trioxyeicosanylhydrocyclopropyl[3,4]pyrrole[1,2-a][1,4,9]triazacycloheptanedioic acid-14-yl)-2,2,2-trifluoroacetamide] gave an IC50 (M^pro) of 16 nM.
In the case of `COC(=O)[C@@H]1CCC(=O)NCCC=Cc2cccc(c2)[C@H](NC(=O)OC(C)(C)C)C(=O)N2C[C@H]3[C@@H]([C@H]2C(=O)N1)C3(C)C`, the ring closure, yield of all isomers ([1]; from C=CCCNC(=O)CC[C@H](NC(=O)[C@@H]1[C@@H]2[C@H](CN1C(=O)[C@@H](NC(=O)OC(C)(C)C)c1cccc(C=C)c1)C2(C)C)C(=O)OC, 3.55 mM, 16.0 h) is reported as 20%.
With `CC1(C)[C@@H]2[C@H]3C(=O)N[C@H](C#N)CCC(=O)NCCC/C=C\CC[C@H](NC(=O)C(F)(F)F)C(=O)N3C[C@@H]21` [Compound 4, N-((3S, 15S, 18aS, 19aR, 19bS, Z)-3-cyano-19,19-dimethyl-1,6,16-trioxo-1,3,4,5,6,7,8,9,10,13,14,15,16,18,18a,19,19a,19b-octadecahydro-2H-cyclopropane[3,4]pyrrole[1,2-a][1,4,9]triazacyclooctadecene-15-yl)-2,2,2-trifluoroacetamide] the IC50 (M^pro) was 411 nM.
In the case of `CC1(C)[C@@H]2[C@H]3C(=O)N[C@H](C#N)CCC(=O)NCCCCCCC[C@H](NC(=O)C(F)(F)F)C(=O)N3C[C@@H]21` [Compound 1, N-((3S, 15S, 18aS, 19aR, 19bS)-3-cyano-19,19-dimethyl-1,6,16-trioxyeicosanylhydro-2H-cyclopropyl[3,4]pyrrole[1,2-a][1,4, 9]triazocyclooctadecyl-15-yl)-2,2,2-trifluoroacetamide], the IC50 (M^pro) is reported as 254 nM.
For `COC(=O)[C@@H]1CCC(=O)NCCCC=CCC[C@H](NC(=O)OC(C)(C)C)C(=O)N2C[C@H]3[C@@H]([C@H]2C(=O)N1)C3(C)C`, the ring closure, yield of all isomers ([1]; from C=CCCCNC(=O)CC[C@H](NC(=O)[C@@H]1[C@@H]2[C@H](CN1C(=O)[C@H](CCC=C)NC(=O)OC(C)(C)C)C2(C)C)C(=O)OC, 1.73 mM, 16.0 h) was 86%.
Compound `COC(=O)[C@@H]1CCC(=O)NCCCC=CC[C@H](NC(=O)OC(C)(C)C)C(=O)N2C[C@H]3[C@@H]([C@H]2C(=O)N1)C3(C)C` has a ring closure, yield of all isomers ([1]; from C=CCCCNC(=O)CC[C@H](NC(=O)[C@@H]1[C@@H]2[C@H](CN1C(=O)[C@H](CC=C)NC(=O)OC(C)(C)C)C2(C)C)C(=O)OC, 3.53 mM, 16.0 h) of 100%.
In the case of `COC(=O)[C@@H]1CCC(=O)NCCCC=CCCC[C@H](NC(=O)OC(C)(C)C)C(=O)N2C[C@H]3[C@@H]([C@H]2C(=O)N1)C3(C)C`, the ring closure, yield of all isomers ([1]; from C=CCCCNC(=O)CC[C@H](NC(=O)[C@@H]1[C@@H]2[C@H](CN1C(=O)[C@H](CCCC=C)NC(=O)OC(C)(C)C)C2(C)C)C(=O)OC, 4.53 mM, 2.0 h) is reported as 60%.
`COC(=O)[C@@H]1CCC(=O)NCCCC=CC[C@H](NC(=O)OC(C)(C)C)C(=O)N2C[C@@H]3CCC[C@@H]3[C@H]2C(=O)N1` showed a ring closure, yield of all isomers ([1]; from C=CCCCNC(=O)CC[C@H](NC(=O)[C@@H]1[C@H]2CCC[C@H]2CN1C(=O)[C@H](CC=C)NC(=O)OC(C)(C)C)C(=O)OC, 3.75 mM, 16.0 h) of 94%.
With `CC1(C)[C@@H]2[C@H]3C(=O)N[C@H](C#N)CCC(=O)NCCCCCCCC[C@H](NC(=O)C(F)(F)F)C(=O)N3C[C@@H]21` [Compound 6, N-((3S, 16S, 19aS, 20aR, 20bS)-3-cyano-20,20-dimethyl-1,6,17-trioxydocosanylhydrocyclopropa[3,4]pyrrole[1,2-a][1,4,9]triazacyclononanedioic acid-16-yl)-2,2,2-trifluoroacetamide] the IC50 (M^pro) was 379 nM.
With `CC1(C)[C@@H]2[C@H]3C(=O)N[C@H](C#N)CCC(=O)NCCC/C=C/CCC[C@H](NC(=O)C(F)(F)F)C(=O)N3C[C@@H]21` [Compound 8b, N-((3S, 16S, 19aS, 20aR, 20bS, Z/E)-3-cyano-20,20-dimethyl-1,6,17-trioxo-1,2,3,4,5,6,7,8,9,10,13,14,15,16,17,19,19a,20,20a,20b-eicosanylhydrocyclopropyl[3,4]pyrrole[1,2-a][1,4,9]triazacyclonon-16-yl)-2,2,2-trifluoroacetamide] the IC50 (M^pro) was 138 nM.
`COC(=O)[C@@H]1CCC(=O)N(C)CCCC=CCC[C@H](NC(=O)OC(C)(C)C)C(=O)N2C[C@H]3[C@@H]([C@H]2C(=O)N1)C3(C)C` gave a ring closure, yield of all isomers ([1]; from C=CCCCN(C)C(=O)CC[C@H](NC(=O)[C@@H]1[C@@H]2[C@H](CN1C(=O)[C@H](CCC=C)NC(=O)OC(C)(C)C)C2(C)C)C(=O)OC, 5.1 mM, 16.0 h) of 94%.
